Counter-ions that a name gives are not always drawn.

For one test, the system named is Acinetobacter baumannii ATCC17961. The test is described as follows: Antimicrobial susceptibility testing: 90% growth inhibitory concentration (IC90) determination, Iso-Sensitest broth. Format: cell-based. Conditions: Acinetobacter baumannii, ATCC17961, 16 h, 90% growth inhibitory concentration, Acinetobacter baumannii ATCC17961, Iso-Sensitest broth, OD 600 nm over 16 h; read-out: ATCC17961 IC90. The method, then:
Antimicrobial Susceptibility Testing:
90% Growth Inhibitory Concentration (IC90) Determination
The in vitro antimicrobial activity of the compounds was determined according to the following procedure:
The assay used a 10-points Iso-Sensitest broth medium to measure quantitatively the in vitro activity of the compounds against Acinetobacter baumannii ATCC17978 and Acinetobacter baumannii ATCC17961.
Stock compounds in DMSO were serially twofold diluted (e.g. range from 50 to 0.097 μM final concentration) in 384 wells microtiter plates and inoculated with 49 μl the bacterial suspension in Iso-Sensitest medium to have a final cell concentration of 5×10^(5) CFU/ml in a final volume/well of 50 ul/well. Microtiter plates were incubated at 35±2° C.
Bacterial cell growth was determined with the measurement of optical density at λ=600 nm each 20 minutes over a time course of 16 h. Growth inhibition was calculated during the logarithmic growth of the bacterial cells with determination of the concentration inhibiting 50% (IC50) and 90% (IC90) of the growth.
Table 1 provides the 90% growth inhibitory concentrations (IC90) in micromoles per liter of the compounds of present invention obtained against the strain Acinetobacter baumannii ATCC17978 and Acinetobacter baumannii ATCC17961.
Take `COc1ccc(-c2cnc3c(Nc4ccc(C(=O)N5CCN(C(=O)[C@@H]6CC(C)(C)CN6)CC5)c(C)c4)nccn23)c(F)c1F` [Example 76, (S)-(4-(4-((3-(2,3-difluoro-4-methoxyphenyl)imidazo[1,2-a]pyrazin-8-yl)amino)-2-methylbenzoyl)piperazin-1-yl)(4,4-dimethylpyrrolidin-2-yl)methanone hydrochloride]: the 90% effect concentration (IC90) was 91 nM.

Regarding `COc1ccc(-c2cnc3c(Nc4ccc(C(=O)N5CCN(C(=O)[C@@H]6CCC(C)(C)N6)CC5)c(C)c4)nccn23)c(F)c1F` [Example 77, (S)-(4-(4-((3-(2,3-difluoro-4-methoxyphenyl)imidazol[1,2-a]pyrazin-8-yl)amino)-2-methylbenzoyl)piperazin-1-yl)(5,5-dimethylpyrrolidin-2-yl)methanone hydrochloride], the IC90 came to 83 nM.

Consider `COc1ccc(-c2cnc3c(Nc4ccc(C(=O)N5CCN(C(=O)[C@@H]6NCC[C@@H]6O)CC5)c(C)c4)nccn23)c(F)c1F` [Example 79, [4-[[3-(2,3-difluoro-4-methoxyphenyl)imidazo[1,2-a]pyrazin-8-yl]amino]-2-methylphenyl]-[4-[(2R,3S)-3-hydroxypyrrolidine-2-carbonyl]piperazin-1-yl]methanone;hydrochloride], for which the IC90 was found to be 167 nM.

For the compound `COc1ccc(-c2cnc3c(Nc4ccc(C(=O)N5CCN(C(=O)C6(C)CCCN6)CC5)c(C)c4)nccn23)c(F)c1F` (stereo not shown) [Example 80, (4-(4-((3-(2,3-difluoro-4-methoxyphenyl)imidazo[1,2-a]pyrazin-8-yl)amino)-2-methylbenzoyl)piperazin-1-yl)(2-methylpyrrolidin-2-yl)methanone hydrochloride], the IC90 turned out to be 81 nM.

Regarding `COc1ccc(-c2cnc3c(Nc4ccc(C(=O)N5CCN(C(=O)[C@@H]6C[C@@H](F)CN6)CC5)c(C)c4)nccn23)c(F)c1F` [Example 81, (4-(4-((3-(2,3-difluoro-4-methoxyphenyl)imidazo[1,2-a]pyrazin-8-yl)amino)-2-methylbenzoyl)piperazin-1-yl)((2S,4R)-4-fluoropyrrolidin-2-yl)methanone hydrochloride], the IC90 stood at 106 nM.

Take `COc1ccc(-c2cnc3c(Nc4ccc(C(=O)N5CCN(C(=O)[C@@H]6C[C@H](F)CN6)CC5)c(C)c4)nccn23)c(F)c1F` [Example 83, (4-(4-((3-(2,3-difluoro-4-methoxyphenyl)imidazo[1,2-a]pyrazin-8-yl)amino)-2-methylbenzoyl)piperazin-1-yl)((2S,4S)-4-fluoropyrrolidin-2-yl)methanone hydrochloride]: the IC90 was 85 nM.

With `Cc1cc(Nc2nccn3c(-c4ccc(OCC#N)c(F)c4F)cnc23)ccc1C(=O)N1CCC(C(=O)N2CC3(CNC3)C2)CC1` [Example 87, 2-(4-(8-((4-(4-(2,6-diazaspiro[3.3]heptane-2-carbonyl)piperidine-1-carbonyl)-3-methylphenyl)amino)imidazo[1,2-a]pyrazin-3-yl)-2,3-difluorophenoxy)acetonitrile], the IC90 was found to be 166 nM.

`COc1ccc(-c2cnc3c(Nc4ccc(C(=O)N5CCC(C(=O)NCC(O)CNC(N)=O)CC5)c(C)c4)nccn23)c(F)c1F` (stereo not shown) [Example 88, 1-(4-((3-(2,3-difluoro-4-methoxyphenyl)imidazo[1,2-a]pyrazin-8-yl)amino)-2-methylbenzoyl)-N-(2-hydroxy-3-ureidopropyl)piperidine-4-carboxamide]: the IC90 was 195 nM.

Take `COc1ccc(-c2cnc3c(Nc4ccc(C(=O)N5CCC(C(=O)NCC(O)CN(C)C)CC5)c(C)c4)nccn23)c(F)c1F` (stereo not shown) [Example 89, 1-(4-((3-(2,3-difluoro-4-methoxyphenyl)imidazo[1,2-a]pyrazin-8-yl)amino)-2-methylbenzoyl)-N-(3-(dimethylamino)-2-hydroxypropyl)piperidine-4-carboxamide]: the IC90 came out at 72 nM.

Regarding `COc1ccc(-c2cnc3c(Nc4ccc(C(=O)N5CCC(C(=O)NCC(O)CN6CCNCC6)CC5)c(C)c4)nccn23)c(F)c1F` (stereo not shown) [Example 90, 1-(4-((3-(2,3-difluoro-4-methoxyphenyl)imidazo[1,2-a]pyrazin-8-yl)amino)-2-methylbenzoyl)-N-(2-hydroxy-3-(piperazin-1-yl)propyl)piperidine-4-carboxamide hydrochloride], the IC90 amounted to 116 nM.

`COc1ccc(-c2cnc3c(Nc4ccc(C(=O)N5CCN(C(=O)[C@@H]6C[C@@H](O)CN6)CC5)c(C)c4)nccn23)cc1Cl` [Example 92, (4-(4-((3-(3-chloro-4-methoxyphenyl)imidazo[1,2-a]pyrazin-8-yl)amino)-2-methylbenzoyl)piperazin-1-yl)((2S,4R)-4-hydroxypyrrolidin-2-yl)methanone hydrochloride]: the 90% effect concentration (IC90) was determined as 98 nM.

For `COc1ccc(-c2cnc3c(Nc4ccc(C(=O)N5CCN(C(=O)[C@@H]6C[C@@H](O)CN6)CC5)c(C)c4)nccn23)c(F)c1Cl` [Example 93, (4-(4-((3-(3-chloro-2-fluoro-4-methoxyphenyl)imidazo[1,2-a]pyrazin-8-yl)amino)-2-methylbenzoyl)piperazin-1-yl)((2S,4R)-4-hydroxypyrrolidin-2-yl)methanone hydrochloride], the IC90 was 84 nM.

Consider `Cc1cc(Nc2nccn3c(-c4ccc(OCC#N)c(Cl)c4)cnc23)ccc1C(=O)N1CCN(C(=O)[C@@H]2C[C@@H](O)CN2)CC1` [Example 94, 2-(2-chloro-4-(8-((4-(4-((2S,4R)-4-hydroxypyrrolidin-2-carbonyl)piperazine-1-carbonyl)-3-methylphenyl)amino)imidazo[1,2-a]pyrazin-3-yl)phenoxy)acetonitrile], for which the IC90 is 69 nM.

Take `C#CCOc1ccc(-c2cnc3c(Nc4ccc(C(=O)N5CCC(CN)CC5)c(C)c4)nccn23)c(F)c1F` [Example 121, [4-(aminomethyl)-1-piperidyl]-[4-[[3-(2,3-difluoro-4-prop-2-ynoxy-phenyl)imidazo[1,2-a]pyrazin-8-yl]amino]-2-methyl-phenyl]methanone; formic acid]: the IC90 came out at 33 nM.

Take `COc1ccc(-c2cnc3c(Nc4ccc(C(=O)N5CCNCC5)c(C)c4)nccn23)c(F)c1F` [Example 141, [4-[[3-(2,3-difluoro-4-methoxyphenyl)imidazo[1,2-a]pyrazin-8-yl]amino]-2-methylphenyl]-piperazin-1-ylmethanone]: the IC90 stood at 117 nM.

In the case of `COc1ccc(-c2cnc3c(Nc4ccc(C(=O)N5CCN(C(=O)NCCN)CC5)c(C)c4)nccn23)c(Cl)c1F` [Example 153, N-(2-aminoethyl)-4-[4-[[3-(2-chloro-3-fluoro-4-methoxy-phenyl)imidazo[1,2-a]pyrazin-8-yl]amino]-2-methyl-benzoyl]piperazine-1-carboxamide formate], the IC90 worked out at 50 nM.

Turning to `Cc1cc(Nc2nccn3c(-c4ccc(OCC#N)c(F)c4Cl)cnc23)ccc1C(=O)N1CCN(C(=O)N2CCO[C@@H](CN)C2)CC1` [Example 158, 2-[4-[8-[4-[4-[(2S)-2-(aminomethyl)morpholine-4-carbonyl]piperazine-1-carbonyl]-3-methyl-anilino]imidazo[1,2-a]pyrazin-3-yl]-3-chloro-2-fluoro-phenoxy]acetonitrile formate], the 90% effect concentration (IC90) is 74 nM.

Regarding `Cc1cc(Nc2nccn3c(-c4ccc(OCC#N)c(F)c4Cl)cnc23)ccc1C(=O)N1CCN(C(=O)NCCN)CC1` [Example 159, N-(2-aminoethyl)-4-[4-[[3-[2-chloro-4-(cyanomethoxy)-3-fluoro-phenyl]imidazo[1,2-a]pyrazin-8-yl]amino]-2-methyl-benzoyl]piperazine-1-carboxamide formate], the IC90 was found to be 35 nM.

Take `Cc1cc(Nc2nccn3c(-c4ccc(OCC#N)c(F)c4Cl)cnc23)ccc1C(=O)N1CCN(C(=O)N[C@@H](C)CN)CC1` [Example 162, N-[(1S)-2-amino-1-methyl-ethyl]-4-[4-[[3-[2-chloro-4-(cyanomethoxy)-3-fluoro-phenyl]imidazo[1,2-a]pyrazin-8-yl]amino]-2-methyl-benzoyl]piperazine-1-carboxamide formate]: the IC90 came out at 46 nM.

`COc1ccc(-c2cnc3c(Nc4ccc(C(=O)N5CCN(C(=O)N6CCN[C@@H](CO)C6)CC5)c(C)c4)nccn23)c(F)c1F` [Example 172, (R)-(4-(4-((3-(2,3-difluoro-4-methoxyphenyl)imidazo[1,2-a]pyrazin-8-yl)amino)-2-methylbenzoyl)piperazin-1-yl)(3-(hydroxymethyl)piperazin-1-yl)methanone hydrochloride]: the IC90 was determined as 78 nM.

Still in this test, the particulars now being: Acinetobacter baumannii, ATCC17961, 16 h, read-out: ATCC17961 IC90.
For the compound `COc1ccc(-c2cnc3c(Nc4ccc(C(=O)N5CCN(C(=O)[C@H]6NCC[C@H]6O)CC5)c(C)c4)nccn23)c(F)c1F` [Example 78, (4-(4-((3-(2,3-difluoro-4-methoxyphenyl)imidazo[1,2-a]pyrazin-8-yl)amino)-2-methylbenzoyl)piperazin-1-yl)((2S,3R)-3-hydroxypyrrolidin-2-yl)methanone hydrochloride], the 90% effect concentration (IC90) was determined as 87 nM.

Turning to `COC[C@@H]1CN[C@H](C(=O)N2CCN(C(=O)c3ccc(Nc4nccn5c(-c6ccc(OC)c(F)c6F)cnc45)cc3C)CC2)C1` [Example 84, (4-(4-((3-(2,3-difluoro-4-methoxyphenyl)imidazo[1,2-a]pyrazin-8-yl)amino)-2-methylbenzoyl)piperazin-1-yl)((2S,4S)-4-(methoxymethyl)pyrrolidin-2-yl)methanone hydrochloride], the 90% effect concentration (IC90) is 76 nM.

The term IC90 denotes the concentration at which the effect reaches the 90% level.

The record behind these values is patent US20230011869A1 (Hoffmann-La Roche Inc., priority 2018, published 2023).
